Data as given in patent US10568963B2, “Multifunctional nanoplatforms for fluorescence imaging and photodynamic therapy developed by post-loading photosensitizer and fluorophore to polyacrylamide nanoparticles” (HEALTH RESEARCH, INC., priority 2009, dated 2020).

Legend:
Colon 26 tumors = experiment: In-vivo photodynamic therapy (PDT), tumor regrowth monitored 60 days; conditions: BALB/c mice bearing Colon 26 tumors, PS dose 0.47 moles/kg, light 665 nm, 135 J/cm^2, 75 mW/cm^2, 24 hours post-injection
Procedure: Eight- to twelve-week-old BALB/cAnNCr mice (Jackson Laboratory, Bar Harbor, Me.) were inoculated subcutaneously (s.c.) with 1×10^6 Colon 26 cells. When tumors reached 40-70 mm^3, mice were injected i.v. (tail vein) with PS 1 (formulated in 1% Tween 80/D5W) or PAA nanoconstructs/formulations 6-10 suspended in water and further diluted in D5W. 24 hours post i.v. injection (dose of PS 1: […]), mice (BALB/c mice bearing Colon 26 tumors, 10 mice/group) were restrained in plexiglass holders and tumors were irradiated at 665 nm with a fluence and fluence rate of 135 J/cm^2 at 75 mW/cm^2, respectively, using a pumped argon-dye laser. The growth of tumors was measured two to three times per week and the mice were monitored for a total of 60 days post PDT treatment. When the tumor regrowth was >400 mm^3, the mice were euthanized according to the guidelines of the institute approved animal protocol.

[1] = in vivo; cited from earlier work
[2] = in vivo; cited from earlier work; remark: listed apart in the source
Water solubility = type: physicochemical

Row | Molecule | PDT response (no tumor regrowth) / tumor cure (Colon 26 tumors) [%] | PDT response (no tumor regrowth) / tumor cure (Colon 26 tumors; listed as HPPH 1) [%] | plasma half lives [1] [h] | skin phototoxicity [2] | solubility in water (Water solubility)
1 | CCCCCCOC(C)c1c(C)c2cc3nc(c4c5[nH]c(cc6nc(cc1[nH]2)C(C)=C6CC)c(C)c5C(=O)C4)[C@@H](CCC(=O)O)[C@@H]3C (stereo partly drawn) [HPPH, 3-(1′-hexyloxyethyl)pyropheophorbide-a] | 40 | 40 | ~25 | low skin phototoxicity | 
2 | CC1(C)C(=CC=C2CCCC(C=CC3=[N+](CCCCS(=O)(=O)[O-])c4ccc5ccccc5c4C3(C)C)=C2Cl)N(CCCCS(=O)(=O)[O-])c2ccc3ccccc3c21.[Na+] [cyanine dye 2, IR820] |  |  |  |  | water insoluble
3 | iodobenzyl pheophorbide-a |  |  | ~25 |  | 
